In brackets after ≈: the same amount, converted by molar mass.
Key:
human melanomas = conditions: athymic mice carrying human melanomas; Nature Medicine 1995, WO 96/29068; cited from earlier work
[1] = test system: P388 lymphocytic leukemia cells; conditions: Choi et al., Planta Medica 1988; cited from earlier work
lymphoma cells (U937) = test: MTT cytotoxicity assay, lymphoma; assay type: cell-based, human; conditions: 72 hours
Method: (§1) After 72 hours, the assay was terminated and percent cyotoxicities calculated.

[2] = test system: colon cancer cells (HT29); test: MTT cytotoxicity assay, colon cancer; assay type: cell-based, human; conditions: 72 hours
Method: as §1

[3] = test system: lung cancer cells (L 132); test: MTT cytotoxicity assay, lung cancer; assay type: cell-based, human; conditions: 72 hours
Method: as §1

[4] = test system: laryngeal cancer cells(HeP.2); test: MTT cytotoxicity assay, laryngeal cancer; assay type: cell-based, human; conditions: 72 hours
Method: as §1

[5] = test system: prostate cancer cells (DU 145); test: MTT cytotoxicity assay, prostate cancer; assay type: cell-based, human; conditions: 72 hours
Method: as §1

human leukemia (MOLT-4) = test: MTT cytotoxicity assay, leukemia; assay type: cell-based; conditions: 72 hours
Method: as §1

[6] = test system: ovarian cancer cells (PA-1); test: MTT cytotoxicity assay, ovarian cancer; assay type: cell-based, human; conditions: 72 hours
Method: as §1

C=C(C)[C@@H]1CC[C@]2(C(=O)O)CC[C@]3(C)[C@H](CC[C@@H]4[C@@]5(C)CC[C@H](O)C(C)(C)[C@@H]5CC[C@]43C)[C@@H]12 [betulinic acid]
toxicity (human melanomas): without toxicity

C=C(C)[C@@H]1CC[C@]2(C(=O)OC)CC[C@]3(C)[C@H](CC[C@@H]4[C@@]5(C)CC[C@H](O)C(C)(C)[C@@H]5CC[C@]43C)[C@@H]12 [betulinic acid methyl ester]
ED50 [1]: 6.8 mg/L (≈ 14.4 µM)

C=C(C)[C@@H]1CC[C@]2(C(=O)O)CC[C@]3(C)[C@H](CC[C@@H]4[C@@]5(C)CC[C@H](OC(C)=O)C(C)(C)[C@@H]5CC[C@]43C)[C@@H]12 [betulinic acid 3-monoacetate]
ED50 [1]: 10.5 mg/L (≈ 21.1 µM)

CC(C)C1CCC2(C(=O)O)CCC3(C)C(CCC4C5(C)CCC(=NOCc6ccc([N+](=O)[O-])cc6)C(C)(C)C5CCC43C)C12 (stereo not shown) [compound 1098]
ED50 Lymphoma 0 937 (lymphoma cells (U937)): 0.4 mg/L (≈ 0.659 µM) | ED50 Colon HT-29 [2]: 2.6 mg/L (≈ 4.28 µM) | ED50 Lung L132 [3]: 1.3 mg/L (≈ 2.14 µM) | ED50 Larynx Hep.2 [4]: 1.0 mg/L (≈ 1.65 µM) | ED50 Prostate DU145 [5]: 1.5 mg/L (≈ 2.47 µM) | ED50 Leukemia MOLT-4 (human leukemia (MOLT-4)): 0.5 mg/L (≈ 0.824 µM) | ED50 Ovary PA-1 [6]: 0.9 mg/L (≈ 1.48 µM)
